Assay results published in paper PMC9928118, “Funneling modulatory peptide design with generative models: Discovery and characterization of disruptors of calcineurin protein-protein interactions” (PLOS Computational Biology, 2023).

Test system: GST-tagged Cn
Experiment: PEPperPRINT peptide microarray binding assay with GST-tagged Cn
Outline: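 Qualitative binding: peptides printed on a PEPperPRINT microarray were incubated overnight at 4 °C with 1 mg/ml GST-tagged Cn, then detected with Alexa-Fluor 647 anti-GST antibody. Log fluorescence was baseline-corrected, averaged over duplicate spots, Z-normalized and averaged across five repeats.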

[1] = max over the chip locations listed for the peptide (two spots)
[2] = mean over the chip locations listed for the peptide (two spots)
[3] = GST-tagged Cn, max over the chip spots listed under Location on chip
[4] = GST-tagged Cn, mean over the chip spots listed under Location on chip
[5] = GST-tagged Cn, max over the spots on the chip (two locations)
[6] = GST-tagged Cn, mean over the spots on the chip (two locations)
[7] = max over the spots listed under Location on chip
[8] = mean over the spots listed under Location on chip
[9] = GST-tagged Cn, max over the chip locations
[10] = GST-tagged Cn, mean over the chip locations
[11] = GST-tagged Cn, max over the spots named in Location on chip
[12] = GST-tagged Cn, mean over the spots named in Location on chip

SAGTGVGIVITVTEAE [SeqRBMlowT_1404]
Chip Fluorescence (max) [1]: 4.275
Chip Fluorescence (mean) [2]: 0.4123

LKDEFSDVRLNIISNL [SeqRBMlowT_1878]
Chip Fluorescence (max) [3]: 0.7069
Chip Fluorescence (mean) [4]: 0.04327

RTLINPSVAFLYMGSR [SeqRBM_5357]
Chip Fluorescence (max) [5]: 1.016
Chip Fluorescence (mean) [6]: -0.7287

GTDTTPSVVVHVCEDD [SeqRBMlowT_1211]
Chip Fluorescence (max) [3]: 0.8657
Chip Fluorescence (mean) [4]: -0.2753

TFWSNPQYFVTLLESD [SeqRBM_6656]
Chip Fluorescence (max) [7]: 3.032
Chip Fluorescence (mean) [8]: 1.049

LDEAIPEIVISPPETP [SeqRBMlowT_4410]
Chip Fluorescence (max) [1]: 9.285
Chip Fluorescence (mean) [2]: 1.035

RSYDVPVFLFTYLPNP [SeqRBM_7048]
Chip Fluorescence (max) [1]: 4.515
Chip Fluorescence (mean) [2]: 0.06008

SPSNPPEIIISSREDN [SeqKCNN2_Mus_musculus]
Chip Fluorescence (max) [7]: 3.195
Chip Fluorescence (mean) [8]: 0.7018

VFAQEDYFLFPVILKE [Seqrandom_9943]
Chip Fluorescence (max) [7]: 3.279
Chip Fluorescence (mean) [8]: -0.004599

RNPGQALLTLEGHSAS [SeqRBMlowT_5868]
Chip Fluorescence (max) [3]: 0.6524
Chip Fluorescence (mean) [4]: -0.2838

TFWTNPQYRVKLEEPD [SeqRBMlowT_2230]
Chip Fluorescence (max) [5]: 1.125
Chip Fluorescence (mean) [6]: -0.4829

TFWTNPQYRITLEELD [SeqRBMlowT_2291]
Chip Fluorescence (max) [1]: 5.53
Chip Fluorescence (mean) [2]: 0.9297

TFWTNPQYRIKLEEAD [SeqRBMlowT_241]
Chip Fluorescence (max) [7]: 3.006
Chip Fluorescence (mean) [8]: 0.9242

TFWSNPQFKITLEDPD [SeqRBMlowT_3183]
Chip Fluorescence (max) [9]: 0.1109
Chip Fluorescence (mean) [10]: -0.8373

TFWTNPQFRVTLTEPD [SeqRBMlowT_9005]
Chip Fluorescence (max) [1]: 5.558
Chip Fluorescence (mean) [2]: 0.117

KDKAGKRSHLKGHSES [Seqshuffled_5410]
Chip Fluorescence (max) [3]: 0.8078
Chip Fluorescence (mean) [4]: -0.09052

STEIIATLFVQVANEY [Seqshuffled_9888]
Chip Fluorescence (max) [11]: 1.433
Chip Fluorescence (mean) [12]: -0.5855

AYPGTYYGQDGSHKKQ [SeqRBM_820]
Chip Fluorescence (max) [7]: 2.763
Chip Fluorescence (mean) [8]: 0.3608

FSMLIGMHEPHPNTTI [Seqrandom_9971]
Chip Fluorescence (max) [11]: 1.524
Chip Fluorescence (mean) [12]: -0.1169

SYLPIIQVRMTDTGEY [SeqRBM_6285]
Chip Fluorescence (max) [5]: 1.118
Chip Fluorescence (mean) [6]: 0.3431

SKMAIAIYQMASCLLH [Seqshuffled_9384]
Chip Fluorescence (max) [11]: 1.655
Chip Fluorescence (mean) [12]: 0.8527

LKDEVPEVRLNIISNL [SeqRCN1_Ramazzottius_varieornatus]
Chip Fluorescence (max) [3]: 0.4089
Chip Fluorescence (mean) [4]: -0.7319

ESSTTPGVVVHICEDD [SeqRBM_7485]
Chip Fluorescence (max) [1]: 8.839
Chip Fluorescence (mean) [2]: 1.544

TFHTNPQYRIKLEEPD [SeqRBMlowT_4495]
Chip Fluorescence (max) [1]: 3.4958
Chip Fluorescence (mean) [2]: 1.049

KKMSPPCISVDPPDEL [SeqCACNA1H_Nothobranchius_rachovii]
Chip Fluorescence (max) [5]: 1.26
Chip Fluorescence (mean) [6]: -0.004401

TFWTNPQYRLKLEDVD [SeqRBMlowT_929]
Chip Fluorescence (max) [1]: 6.02
Chip Fluorescence (mean) [2]: 1.294

KERDVNYYIIHPVGSA [Seqshuffled_9799]
Chip Fluorescence (max) [1]: 3.906
Chip Fluorescence (mean) [2]: 0.5831

TFWANPQFRIKLEEPD [SeqRBMlowT_4612]
Chip Fluorescence (max) [9]: 0.1586
Chip Fluorescence (mean) [10]: -0.3624

NNSESPKIAITTTLGN [SeqRBM_1677]
Chip Fluorescence (max) [11]: 1.504
Chip Fluorescence (mean) [12]: -0.4285

RAYMNPFMTFIDGGHR [SeqRBMlowT_1518]
Chip Fluorescence (max) [11]: 1.378
Chip Fluorescence (mean) [12]: 0.8819

LSLKIPEISIQDMTAQ [SeqFLNA_Macaca_mulatta]
Chip Fluorescence (max) [5]: 1.124
Chip Fluorescence (mean) [6]: -0.12

GGPGTPGRPGIHSAPS [SeqRBM_5424]
Chip Fluorescence (max) [11]: 1.6472
Chip Fluorescence (mean) [12]: -0.88

LKDESPEVRLNIISSL [SeqRBMlowT_1855]
Chip Fluorescence (max) [7]: 3.106
Chip Fluorescence (mean) [8]: 1.095

KKMAPPCINIDPAPTN [SeqRBMlowT_309]
Chip Fluorescence (max) [11]: 1.659
Chip Fluorescence (mean) [12]: -0.3088

QTEDQPGIIVHTAMLP [SeqRCN1_Bactrocera_dorsalis]
Chip Fluorescence (max) [3]: 0.5479
Chip Fluorescence (mean) [4]: -0.783

GTETTPSVVVHVCEDD [SeqRBMlowT_112]
Chip Fluorescence (max) [1]: 4.01
Chip Fluorescence (mean) [2]: 1.52

PGLYDNALGMESFTLS [SeqRBMlowT_2805]
Chip Fluorescence (max) [5]: 1.201
Chip Fluorescence (mean) [6]: 0.8541

TFWTNPQYKITLEEDD [SeqRBMlowT_9018]
Chip Fluorescence (max) [7]: 2.666
Chip Fluorescence (mean) [8]: -0.09775

KKMAPPCINIDFAPTN [SeqRBMlowT_322]
Chip Fluorescence (max) [9]: -0.3563
Chip Fluorescence (mean) [10]: -3.542

RQPGQALLTLRGHKKQ [SeqRBMlowT_5816]
Chip Fluorescence (max) [11]: 1.5016
Chip Fluorescence (mean) [12]: 0.5912

GSDDCPNVIVHIPHED [SeqRBM_9050]
Chip Fluorescence (max) [1]: 5.16
Chip Fluorescence (mean) [2]: 0.1112

RTPGTFLLTLRGHKKQ [SeqRBMlowT_7783]
Chip Fluorescence (max) [7]: 2.997
Chip Fluorescence (mean) [8]: 0.7866

RAYINPFMQFNDGGSR [SeqRBM_9542]
Chip Fluorescence (max) [5]: 1.138
Chip Fluorescence (mean) [6]: 0.2992

TFWSNPQFKVSLEEPD [SeqRBMlowT_2967]
Chip Fluorescence (max) [11]: 1.583
Chip Fluorescence (mean) [12]: -0.5694

PQLYQNVLGIGSFSLS [SeqRBMlowT_4804]
Chip Fluorescence (max) [3]: 0.4517
Chip Fluorescence (mean) [4]: -0.7977

HSKLIPKLSFQSPVHH [SeqRBMlowT_814]
Chip Fluorescence (max) [9]: -0.8035
Chip Fluorescence (mean) [10]: -1.44

KKMSPPCIDVHPLDSA [SeqRBM_2282]
Chip Fluorescence (max) [7]: 2.64
Chip Fluorescence (mean) [8]: 0.293

TFWTNPQFRITLDSPD [SeqRBMlowT_5998]
Chip Fluorescence (max) [7]: 2.88
Chip Fluorescence (mean) [8]: 0.5672

STSSLPTFSFSSPVPT [SeqRBMlowT_3904]
Chip Fluorescence (max) [3]: 0.9816
Chip Fluorescence (mean) [4]: -1.275

GGPGTPTRQGQHLAPG [SeqRBMlowT_9846]
Chip Fluorescence (max) [1]: 21.0979
Chip Fluorescence (mean) [2]: 2.702

TGWTNPQFKLRLENDP [SeqRBM_4269]
Chip Fluorescence (max) [3]: 0.7861
Chip Fluorescence (mean) [4]: -0.005549

AQSSQPPISTKYDARG [Seqshuffled_9482]
Chip Fluorescence (max) [3]: 0.6167
Chip Fluorescence (mean) [4]: -0.6535

PFEKNDIQQIHLEEHP [Seqshuffled_9861]
Chip Fluorescence (max) [11]: 1.396
Chip Fluorescence (mean) [12]: 0.78

PSDPQPSIIVHACLED [SeqRBM_9284]
Chip Fluorescence (max) [7]: 3.302
Chip Fluorescence (mean) [8]: 0.8695

TFWTNPQFVVSLEEPD [SeqRBMlowT_8096]
Chip Fluorescence (max) [5]: 1.137
Chip Fluorescence (mean) [6]: -0.6823

PAFFCEGFTIQADSLD [Seqshuffled_9825]
Chip Fluorescence (max) [5]: 1.294
Chip Fluorescence (mean) [6]: 0.4829

VFWANPQFEVTLREDD [SeqRBM_5060]
Chip Fluorescence (max) [11]: 1.773
Chip Fluorescence (mean) [12]: 0.03485

PDESTPEITITPAELP [SeqRBMlowT_5714]
Chip Fluorescence (max) [11]: 1.719
Chip Fluorescence (mean) [12]: -0.09544

TFWINPQFKVRLDEID [SeqCAPN11_Boiga_irregularis]
Chip Fluorescence (max) [11]: 1.765
Chip Fluorescence (mean) [12]: 0.8018

KRYWKPQFKFGTQVSE [SeqRBM_7919]
Chip Fluorescence (max) [11]: 1.674
Chip Fluorescence (mean) [12]: -0.01942

ADEAIPEITITSAELP [SeqRBMlowT_2514]
Chip Fluorescence (max) [1]: 17.6628
Chip Fluorescence (mean) [2]: 2.99

LLLKIPSLNINDVEAS [SeqRBM_1919]
Chip Fluorescence (max) [9]: -0.781
Chip Fluorescence (mean) [10]: -1.379

KKMSPPCINIDPAPEN [SeqRBMlowT_2410]
Chip Fluorescence (max) [5]: 1.08
Chip Fluorescence (mean) [6]: -0.8311
